Legend:
telomerase = target: T1, telomerase (Homo sapiens, UniProt O14746); assay: Telomerase activity assay using MGC-803 cells extract; assay type: biochemical; conditions: mean ± SD
T1 construct: assayed for telomerase activity using MGC-803 cells extract; endogenous in cells; host or cells: MGC-803 cell extract
T1 sequence (O14746 whole entry): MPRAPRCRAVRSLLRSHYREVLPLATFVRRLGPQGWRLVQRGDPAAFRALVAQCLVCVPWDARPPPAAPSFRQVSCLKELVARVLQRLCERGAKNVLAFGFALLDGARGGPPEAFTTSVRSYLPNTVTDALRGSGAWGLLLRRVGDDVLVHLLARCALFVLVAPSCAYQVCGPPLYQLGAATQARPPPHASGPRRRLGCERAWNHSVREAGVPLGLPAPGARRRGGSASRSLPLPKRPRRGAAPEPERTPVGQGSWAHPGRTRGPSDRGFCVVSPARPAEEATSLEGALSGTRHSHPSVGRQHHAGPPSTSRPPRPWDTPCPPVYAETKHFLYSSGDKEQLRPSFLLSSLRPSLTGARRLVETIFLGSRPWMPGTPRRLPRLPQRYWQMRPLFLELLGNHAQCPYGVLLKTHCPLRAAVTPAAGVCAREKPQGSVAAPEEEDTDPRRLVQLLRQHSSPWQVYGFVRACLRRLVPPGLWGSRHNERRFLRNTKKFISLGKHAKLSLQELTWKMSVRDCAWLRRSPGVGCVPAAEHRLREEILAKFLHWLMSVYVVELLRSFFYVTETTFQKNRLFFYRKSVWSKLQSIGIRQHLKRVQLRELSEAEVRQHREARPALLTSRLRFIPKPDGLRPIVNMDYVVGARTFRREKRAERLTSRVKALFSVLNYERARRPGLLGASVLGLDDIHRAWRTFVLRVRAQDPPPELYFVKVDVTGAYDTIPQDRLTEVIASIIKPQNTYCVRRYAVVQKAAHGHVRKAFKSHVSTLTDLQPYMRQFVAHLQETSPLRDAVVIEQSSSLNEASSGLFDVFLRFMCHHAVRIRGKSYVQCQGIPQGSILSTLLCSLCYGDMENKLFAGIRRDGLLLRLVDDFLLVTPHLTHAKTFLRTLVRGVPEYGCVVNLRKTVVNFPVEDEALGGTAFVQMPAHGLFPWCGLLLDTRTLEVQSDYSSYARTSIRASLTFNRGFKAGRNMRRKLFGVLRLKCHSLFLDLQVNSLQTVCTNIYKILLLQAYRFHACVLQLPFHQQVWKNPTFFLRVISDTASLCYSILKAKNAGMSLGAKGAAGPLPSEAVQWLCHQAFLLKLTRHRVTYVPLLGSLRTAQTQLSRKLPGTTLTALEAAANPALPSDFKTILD
T1 sequence (O60832 2-514 partner limits assumed): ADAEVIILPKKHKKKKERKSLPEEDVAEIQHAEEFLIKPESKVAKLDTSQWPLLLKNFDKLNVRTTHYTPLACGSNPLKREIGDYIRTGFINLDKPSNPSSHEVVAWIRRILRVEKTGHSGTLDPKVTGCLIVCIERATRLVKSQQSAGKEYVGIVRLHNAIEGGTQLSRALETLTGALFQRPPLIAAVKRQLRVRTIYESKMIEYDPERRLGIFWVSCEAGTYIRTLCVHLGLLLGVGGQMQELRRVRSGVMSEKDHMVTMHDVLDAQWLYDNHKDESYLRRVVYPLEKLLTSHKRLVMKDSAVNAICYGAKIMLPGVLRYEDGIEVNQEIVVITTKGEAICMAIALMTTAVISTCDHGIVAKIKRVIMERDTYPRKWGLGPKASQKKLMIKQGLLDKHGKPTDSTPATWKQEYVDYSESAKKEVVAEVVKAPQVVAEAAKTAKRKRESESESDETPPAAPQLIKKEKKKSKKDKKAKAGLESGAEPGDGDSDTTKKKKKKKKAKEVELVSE
T1 sequence (Q9NPE3 whole entry partner): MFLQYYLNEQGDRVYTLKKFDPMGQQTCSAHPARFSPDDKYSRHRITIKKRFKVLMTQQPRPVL
T1 sequence (Q9NX24 whole entry partner): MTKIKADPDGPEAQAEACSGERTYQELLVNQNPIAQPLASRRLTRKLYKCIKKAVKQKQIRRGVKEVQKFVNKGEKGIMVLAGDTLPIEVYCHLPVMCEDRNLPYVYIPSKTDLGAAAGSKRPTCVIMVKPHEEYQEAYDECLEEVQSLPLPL
T1 sequence (Q9NY12 whole entry partner): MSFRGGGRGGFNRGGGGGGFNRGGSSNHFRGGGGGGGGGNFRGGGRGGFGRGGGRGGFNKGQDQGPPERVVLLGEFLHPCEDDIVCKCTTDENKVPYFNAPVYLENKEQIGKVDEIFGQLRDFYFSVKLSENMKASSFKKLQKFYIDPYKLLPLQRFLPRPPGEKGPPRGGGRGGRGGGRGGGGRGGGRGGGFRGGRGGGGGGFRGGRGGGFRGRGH

| Compound | melting point | IC50 (telomerase) |
| --- | --- | --- |
| COc1cc(OC)c2c(=O)c(OCC(=O)Nc3nnc(-c4ccccc4)o3)c(-c3cc(OC)c(OC)c(OC)c3)oc2c1 [A1, 2–(5,7-dimethoxy-4-oxo-2–(3,4,5-trimethoxyphenyl)-4H-chromen-3-yloxy)-N-(5-phenyl-1,3,4-oxadiazol-2-yl)acetamide] | 222 to 224 °C | 21.1 ± 2.28 µM |
| COc1cc(OC)c2c(=O)c(OCC(=O)Nc3nnc(-c4cccc(F)c4)o3)c(-c3cc(OC)c(OC)c(OC)c3)oc2c1 [A3, 2–(5,7-dimethoxy-4-oxo-2–(3,4,5-trimethoxyphenyl)-4H-chromen-3-yloxy)-N-(5–(3-fluorophenyl)-1,3,4-oxadiazol-2-yl)acetamide] | 217 to 219 °C | 2.57 ± 0.5 µM |
| COc1cc(OC)c2c(=O)c(OCC(=O)Nc3nnc(-c4ccccc4F)o3)c(-c3cc(OC)c(OC)c(OC)c3)oc2c1 [A4, 2–(5,7-dimethoxy-4-oxo-2–(3,4,5-trimethoxyphenyl)-4H-chromen-3-yloxy)-N-(5–(2-fluorophenyl)-1,3,4-oxadiazol-2-yl)acetamide] | 213 to 215 °C | 12.1 ± 2.01 µM |
| COc1cc(OC)c2c(=O)c(OCC(=O)Nc3nnc(-c4cccc(Cl)c4)o3)c(-c3cc(OC)c(OC)c(OC)c3)oc2c1 [A6, N-(5–(3-chlorophenyl)-1,3,4-oxadiazol-2-yl)-2–(5,7-dimethoxy-4-oxo-2–(3,4,5-trimethoxyphenyl)-4H-chromen-3-yloxy)acetamide] | 206 to 208 °C | 7.35 ± 1.01 µM |
| COc1cc(OC)c2c(=O)c(OCC(=O)Nc3nnc(-c4ccccc4Cl)o3)c(-c3cc(OC)c(OC)c(OC)c3)oc2c1 [A7, N-(5–(2-chlorophenyl)-1,3,4-oxadiazol-2-yl)-2–(5,7-dimethoxy-4-oxo-2–(3,4,5-trimethoxyphenyl)-4H-chromen-3-yloxy)acetamide] | 201 to 203 °C | 12.5 ± 1.88 µM |
| COc1cc(OC)c2c(=O)c(OCC(=O)Nc3nnc(-c4ccc(Br)cc4)o3)c(-c3cc(OC)c(OC)c(OC)c3)oc2c1 [A8, N-(5–(4-bromophenyl)-1,3,4-oxadiazol-2-yl)-2–(5,7-dimethoxy-4-oxo-2–(3,4,5-trimethoxyphenyl)-4H-chromen-3-yloxy)acetamide] | 234 to 236 °C | 1.22 ± 0.29 µM |
| COc1cc(OC)c2c(=O)c(OCC(=O)Nc3nnc(-c4cccc(Br)c4)o3)c(-c3cc(OC)c(OC)c(OC)c3)oc2c1 [A9, N-(5–(3-bromophenyl)-1,3,4-oxadiazol-2-yl)-2–(5,7-dimethoxy-4-oxo-2–(3,4,5-trimethoxyphenyl)-4H-chromen-3-yloxy)acetamide] | 202 to 204 °C | 2.01 ± 0.39 µM |
| COc1cc(OC)c2c(=O)c(OCC(=O)Nc3nnc(-c4ccccc4Br)o3)c(-c3cc(OC)c(OC)c(OC)c3)oc2c1 [A10, N-(5–(2-bromophenyl)-1,3,4-oxadiazol-2-yl)-2–(5,7-dimethoxy-4-oxo-2–(3,4,5-trimethoxyphenyl)-4H-chromen-3-yloxy)acetamide] | 199 to 201 °C | 21 ± 4.09 µM |
| COc1cc(OC)c2c(=O)c(OCC(=O)Nc3nnc(-c4ccc(C)cc4)o3)c(-c3cc(OC)c(OC)c(OC)c3)oc2c1 [A11, 2–(5,7-dimethoxy-4-oxo-2–(3,4,5-trimethoxyphenyl)-4H-chromen-3-yloxy)-N-(5-p-tolyl-1,3,4-oxadiazol-2-yl)acetamide] | 225 to 227 °C | 2.35 ± 0.48 µM |
| COc1cc(OC)c2c(=O)c(OCC(=O)Nc3nnc(-c4cccc(C)c4)o3)c(-c3cc(OC)c(OC)c(OC)c3)oc2c1 [A12, 2–(5,7-dimethoxy-4-oxo-2–(3,4,5-trimethoxyphenyl)-4H-chromen-3-yloxy)-N-(5-m-tolyl-1,3,4-oxadiazol-2-yl)acetamide] | 197 to 199 °C | 15.3 ± 2.85 µM |
| COc1cc(OC)c2c(=O)c(OCC(=O)Nc3nnc(-c4ccccc4C)o3)c(-c3cc(OC)c(OC)c(OC)c3)oc2c1 [A13, 2–(5,7-dimethoxy-4-oxo-2–(3,4,5-trimethoxyphenyl)-4H-chromen-3-yloxy)-N-(5-o-tolyl-1,3,4-oxadiazol-2-yl)acetamide] | 205 to 207 °C | 25.1 ± 2.01 µM |
| COc1cc(OC)c2c(=O)c(OCC(=O)Nc3nnc(-c4cccc([N+](=O)[O-])c4)o3)c(-c3cc(OC)c(OC)c(OC)c3)oc2c1 [A14, 2–(5,7-dimethoxy-4-oxo-2–(3,4,5-trimethoxyphenyl)-4H-chromen-3-yloxy)-N-(5–(3-nitrophenyl)-1,3,4-oxadiazol-2-yl)acetamide] | 233 to 235 °C | 4.11 ± 0.6 µM |
| COc1cc(OC)c2c(=O)c(OCC(=O)Nc3nnc(-c4ccccc4[N+](=O)[O-])o3)c(-c3cc(OC)c(OC)c(OC)c3)oc2c1 [A15, 2–(5,7-dimethoxy-4-oxo-2–(3,4,5-trimethoxyphenyl)-4H-chromen-3-yloxy)-N-(5–(2-nitrophenyl)-1,3,4-oxadiazol-2-yl)acetamide] | 204 to 206 °C | 6.98 ± 0.96 µM |
| COc1cc(OC)c2c(=O)c(OCC(=O)Nc3nnc(-c4cccc(C(F)(F)F)c4)o3)c(-c3cc(OC)c(OC)c(OC)c3)oc2c1 [A17, 2–(5,7-dimethoxy-4-oxo-2–(3,4,5-trimethoxyphenyl)-4H-chromen-3-yloxy)-N-(5–(3-(trifluoromethyl)phenyl)-1,3,4-oxadiazol-2-yl)acetamide] | 220 to 222 °C | 4.11 ± 0.62 µM |
| COc1cc(OC)c2c(=O)c(OCC(=O)Nc3nnc(-c4ccccc4C(F)(F)F)o3)c(-c3cc(OC)c(OC)c(OC)c3)oc2c1 [A18, 2–(5,7-dimethoxy-4-oxo-2–(3,4,5-trimethoxyphenyl)-4H-chromen-3-yloxy)-N-(5–(2-(trifluoromethyl)phenyl)-1,3,4-oxadiazol-2-yl)acetamide] | 191 to 193 °C | 1.07 ± 0.2 µM |
| COc1cc(OC)c2c(=O)c(OCC(=O)Nc3nnc(-c4ccc(OC(F)(F)F)cc4)o3)c(-c3cc(OC)c(OC)c(OC)c3)oc2c1 [A19, 2–(5,7-dimethoxy-4-oxo-2–(3,4,5-trimethoxyphenyl)-4H-chromen-3-yloxy)-N-(5–(4-(trifluoromethoxy)phenyl)-1,3,4-oxadiazol-2-yl)acetamide] | 230 to 232 °C | 1.21 ± 0.29 µM |
| COc1cc(OC)c2c(=O)c(OCC(=O)Nc3nnc(-c4ccccc4OC(F)(F)F)o3)c(-c3cc(OC)c(OC)c(OC)c3)oc2c1 [A21, 2–(5,7-dimethoxy-4-oxo-2–(3,4,5-trimethoxyphenyl)-4H-chromen-3-yloxy)-N-(5–(2-(trifluoromethoxy)phenyl)-1,3,4-oxadiazol-2-yl)acetamide] | 202 to 204 °C | 5.11 ± 1.1 µM |
| COc1ccc(-c2nnc(NC(=O)COc3c(-c4cc(OC)c(OC)c(OC)c4)oc4cc(OC)cc(OC)c4c3=O)o2)cc1 [A22, 2–(5,7-dimethoxy-4-oxo-2–(3,4,5-trimethoxyphenyl)-4H-chromen-3-yloxy)-N-(5–(4-methoxyphenyl)-1,3,4-oxadiazol-2-yl)acetamide] | 239 to 241 °C | 9.11 ± 1.88 µM |
| COc1cccc(-c2nnc(NC(=O)COc3c(-c4cc(OC)c(OC)c(OC)c4)oc4cc(OC)cc(OC)c4c3=O)o2)c1 [A23, 2–(5,7-dimethoxy-4-oxo-2–(3,4,5-trimethoxyphenyl)-4H-chromen-3-yloxy)-N-(5–(3-methoxyphenyl)-1,3,4-oxadiazol-2-yl)acetamide] | 208 to 210 °C | 1.9 ± 0.42 µM |
| COc1cc(OC)c2c(=O)c(OCC(=O)Nc3nnc(-c4ccc(F)c(Cl)c4)o3)c(-c3cc(OC)c(OC)c(OC)c3)oc2c1 [A24, N-(5–(3-chloro-4-fluorophenyl)-1,3,4-oxadiazol-2-yl)-2–(5,7-dimethoxy-4-oxo-2–(3,4,5-trimethoxyphenyl)-4H-chromen-3-yloxy)acetamide] | 228 to 230 °C | 4.01 ± 0.47 µM |
| COc1cc(OC)c2c(=O)c(OCC(=O)Nc3nnc(-c4ccc(Cl)c(Cl)c4)o3)c(-c3cc(OC)c(OC)c(OC)c3)oc2c1 [A25, N-(5–(3,4-dichlorophenyl)-1,3,4-oxadiazol-2-yl)-2–(5,7-dimethoxy-4-oxo-2–(3,4,5-trimethoxyphenyl)-4H-chromen-3-yloxy)acetamide] | 222 to 224 °C | > 60 µM |
| COc1cc(OC)cc(-c2nnc(NC(=O)COc3c(-c4cc(OC)c(OC)c(OC)c4)oc4cc(OC)cc(OC)c4c3=O)o2)c1 [A26, 2–(5,7-dimethoxy-4-oxo-2–(3,4,5-trimethoxyphenyl)-4H-chromen-3-yloxy)-N-(5–(3,5-dimethoxyphenyl)-1,3,4-oxadiazol-2-yl)acetamide] | 198 to 200 °C | 1.06 ± 0.11 µM |
| COc1cc(OC)c2c(=O)c(OCC(=O)Nc3nnc(-c4cccc5ccccc45)o3)c(-c3cc(OC)c(OC)c(OC)c3)oc2c1 [A28, 2–(5,7-dimethoxy-4-oxo-2–(3,4,5-trimethoxyphenyl)-4H-chromen-3-yloxy)-N-(5-(naphthalen-1-yl)-1,3,4-oxadiazol-2-yl)acetamide] | 238 to 240 °C | 6.17 ± 0.99 µM |
| COc1cc(OC)c2c(=O)c(OCC(=O)Nc3nnc(-c4ccc5c(c4)OCCO5)o3)c(-c3cc(OC)c(OC)c(OC)c3)oc2c1 [A29, N-(5–(2,3-dihydrobenzo[b][1, 4]dioxin-6-yl)-1,3,4-oxadiazol-2-yl)-2–(5,7-dimethoxy-4-oxo-2–(3,4,5-trimethoxyphenyl)-4H-chromen-3-yloxy)acetamide] | 231 to 233 °C | > 60 µM |
| COc1cc(OC)c2c(=O)c(OCC(=O)Nc3nnc(-c4cccc(OCc5ccccc5)c4)o3)c(-c3cc(OC)c(OC)c(OC)c3)oc2c1 [A30, N-(5–(3-(benzyloxy)phenyl)-1,3,4-oxadiazol-2-yl)-2–(5,7-dimethoxy-4-oxo-2–(3,4,5-trimethoxyphenyl)-4H-chromen-3-yloxy)acetamide] | 188 to 190 °C | > 60 µM |
| COc1cc(OC)c2c(=O)c(OCC(=O)Nc3nnc(-c4ccco4)o3)c(-c3cc(OC)c(OC)c(OC)c3)oc2c1 [A31, 2–(5,7-dimethoxy-4-oxo-2–(3,4,5-trimethoxyphenyl)-4H-chromen-3-yloxy)-N-(5-(furan-2-yl)-1,3,4-oxadiazol-2-yl)acetamide] | 240 to 242 °C | 2.75 ± 0.19 µM |

Reference: paper PMC7782168, “Synthesis, telomerase inhibitory and anticancer activity of new 2-phenyl-4H-chromone derivatives containing 1,3,4-oxadiazole moiety” (Journal of Enzyme Inhibition and Medicinal Chemistry, 2020)
